Experimental data from US20260234185A1, “ANTI-AGING COMPOSITION COMPRISING PEPTIDE COMPLEX AS ACTIVE INGREDIENT” (priority 2023, published 2026).
Where no end group is shown, it is not given here.

Key:
Type in all cases: cell-based
sirtuin 1 (SIRT1) gene = assay: RT-PCR of SIRT1 gene expression in palmitate-treated adipocytes; conditions: 3T3-L1 adipocytes, 25 μM palmitate 30 minutes; 0.2, 2, 20 μg/mL; 24 hours; RT-PCR vs palmitate control (PA) (FIGS. 4a, 4b)
Description: (§1) An experiment was performed to determine whether the peptide complex prepared in Preparation Example 1 increases the gene expression of longevity-related genes, FGF21, SIRT1, AMPK, and FOXO3A, in adipocytes in a state of insulin metabolic disorder induced by palmitate treatment.
(§2) When 3T3-L1 preadipocytes reached 80% confluence, they were seeded at 5×10^3 cells/well in a 96-well plate and used for the experiment. Two days after reaching confluence, the medium was replaced with differentiation-inducing medium to induce the differentiation into adipocytes, and two days after the induction, the medium was cultured for 2 days in a medium containing 10% FBS and 10 μg/mL insulin, and then the medium was replaced with 10% FBS every 2 days until their differentiation into adipocytes. After differentiation was complete, the medium was replaced with glucose-free medium, cultured for 16 hours, and then starvation was induced by culturing for 40 minutes in 100 μL KPPH buffer containing 2% BSA. After treating with 25 μM palmitate for 30 minutes, the peptide complexes were treated at concentrations of 0.2 μg/mL, 2 μg/mL, and 20 μg/mL, cultured for 24 hours, and RNA was extracted after 24 hours and RT-PCR was performed. […] Subsequently, the mRNA expression pattern was determined by agarose gel electrophoresis.

FGF21 protein = assay: ELISA of FGF21 protein expression in adipocytes; conditions: differentiated 3T3-L1 adipocytes, 0.2, 2, 20 μg/mL, ELISA (FIG. 2)
Description: An experiment was performed using adipocytes to determine whether the peptide complex prepared in Preparation Example 1 increases the expression level of FGF21 protein, a longevity-related protein, in adipocytes.
(§3) When 3T3-L1 preadipocytes reached 80% confluence, they were seeded at 5×10^3 cells/well in a 96-well plate and used for the experiment. Two days after reaching confluence, the medium was replaced with a differentiation-inducing medium to induce the differentiation into adipocytes, and two days after the induction, the cells were cultured for 2 days in a medium containing 10% FBS and 10 μg/mL insulin, and then the medium was replaced with 10% FBS every 2 days until differentiation into adipocytes. Once the differentiation was complete, the medium was replaced with a serum-free medium and cultured for 4 hours to induce starvation. The peptide complexes were treated at concentrations of 0.2 μg/mL, 2 μg/mL, and 20 μg/mL, and cultured for 48 and 72 hours, respectively. The complexes were dissolved by adding dissolution buffer thereto, and the proteins obtained by centrifugation at 4° C. and 12,000 rpm for 10 minutes were analyzed using a Quantikine ELISA Kit, and the absorbance was measured at 450 nm using a Microplate Reader.

[1] = test system: AMP-activated protein kinase (AMPK); assay: Western blot of AMPK phosphorylation in adipocytes; conditions: differentiated 3T3-L1 adipocytes; 0.2, 2, 20 μg/mL; 1 hour; Western blot (FIGS. 1a, 1b)
Description: An experiment was performed to determine whether the peptide complex prepared in Preparation Example 1 using adipocytes increases the phosphorylation of AMP-activated protein kinase (AMPK), which is a longevity-related protein, and increases the expression levels of sirtuin 1 (SIRT1) and fibroblast growth factor 21 (FGF21) proteins in adipocytes.
as §3, with “until their” for “until”, “μg/mL, incubated” for “μg/mL, and cultured”, “for 1 hour,” for “for 48 and 72 hours, respectively. The complexes were”, “for 30” for “for 10”, “were quantified” for “were analyzed”, “a BCA kit. […]” for “a Quantikine ELISA Kit, and the absorbance was measured at 450 nm using a Microplate Reader.”

FOXO3A gene = assay: RT-PCR of FOXO3A gene expression in palmitate-treated adipocytes; conditions: 3T3-L1 adipocytes, 25 μM palmitate 30 minutes; 0.2, 2, 20 μg/mL; 24 hours; RT-PCR vs palmitate control (PA) (FIGS. 4a, 4b)
Description: as §1, §2

[2] = test system: fibroblast growth factor 21 (FGF21) gene; assay: RT-PCR of FGF21 gene expression in palmitate-treated adipocytes; conditions: 3T3-L1 adipocytes, 25 μM palmitate 30 minutes; 0.2, 2, 20 μg/mL; 24 hours; RT-PCR vs palmitate control (PA) (FIGS. 4a, 4b)
Description: as §1, §2

peptide complex: prepared by mixing equal amounts of the peptide of SEQ ID NO: 1 (LKTRN) and the peptide of SEQ ID NO: 2 (KGSATGWMA) (also: mixture of two peptides)
increased: expression of sirtuin 1 (SIRT1) gene (sirtuin 1 (SIRT1) gene) | expression level of FGF21 protein (FGF21 protein; 48 hours) | expression level of FGF21 protein (FGF21 protein; 72 hours) | phosphorylation of AMPKα [1] | expression of FOXO3A gene (FOXO3A gene) | expression of fibroblast growth factor 21 (FGF21) gene [2]
